Reference: article PMC5507466, “The ubiquitin-conjugating enzyme CDC34 is essential for cytokinesis in contrast to putative subunits of a SCF complex in Trypanosoma brucei” (PLoS Neglected Tropical Diseases, 2017)

Biological target: T1, TbCDC34 (Trypanosoma brucei, UniProt Q382B7)
T1 construct: gene Tb11.01.5790; N-terminal 6His-tagged, expressed in E. coli BL21(DE3)+pLysE, Ni-NTA purified; catalytic Cys84, Ser86
T1 sequence (Q382B7 1-247): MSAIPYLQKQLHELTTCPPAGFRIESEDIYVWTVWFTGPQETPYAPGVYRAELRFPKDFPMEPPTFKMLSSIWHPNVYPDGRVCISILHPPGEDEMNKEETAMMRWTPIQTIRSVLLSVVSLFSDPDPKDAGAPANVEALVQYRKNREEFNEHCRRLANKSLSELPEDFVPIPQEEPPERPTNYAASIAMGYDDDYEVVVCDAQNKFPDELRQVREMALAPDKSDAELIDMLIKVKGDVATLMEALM
Assay: in vitro gel-based ubiquitination assay (anti-ubiquitin and anti-His western blot)
Assay type: biochemical
Conditions: 300 μM CC0651 vs DMSO; 10 μM E2, 100 nM human E1, 5 μM human ubiquitin; ATP; 37 °C, 0-4 h

SMILES: COCC(=O)N[C@@H](Cc1ccc(-c2cc(Cl)cc(Cl)c2)cc1)[C@H](O)[C@@H](O)C(=O)O [CC0651]
- in vitro gel-based ubiquitination assay (anti-ubiquitin and anti-His western blo): addition of CC0651 to the reaction had modest, but detectable effect on TbCDC34 activity
